# Reference: US6277867A, “Pesticide compounds, compositions and process for the preparation thereof” (priority 1995, dated 2001)
# Read-outs that look alike come from different tables or passages of the source.
# What was measured:
# [1] = tested on: two-spotted spider mite (Tetranychus urticae); test: Synergist activity of compound 599 against two-spotted spider mite; assay type: in vivo; settings: read-out: LC50
# Protocol: From the first pair of leaves of a 1 week old bean plant leaf-discs of […] diameter were cut which were treated by dipping them (5 min) into the test solution consisting of the active ingredient and the synergist in definite concentrations. For the preparation of the stock solutions of required concentration, 10% acetone as co-solvent and 0.1% Tween-80 as detergent were applied. The dried leaf-discs were placed on wet surface and they were infected with […]-up female mites per leaf. […] The experiment was performed in 4 replica.
# Synergist activity of compound 599 with various specific acaricides was investigated against two-spotted spider mite (Tetranychus urticae), by the method described in Example 8.
# [2] = tested on: resistant house fly, IX strain; test: Synergistic activity on resistant house fly, IX strain; assay type: in vivo, Musca domestica; settings: active ingredient alone
# Protocol: (§1) Investigation of Synergistic Activity on Resistant House Fly (Musca domestica) Populations
# (§2) Investigation was carried out as described in biological Example 1. LD50 values and synergist ratios were determined as given in Example 2.
# [3] = tested on: resistant house fly, INSEL strain; test: Synergistic activity on resistant house fly, INSEL strain; assay type: in vivo, Musca domestica; settings: active ingredient alone
# Protocol: as §1, §2
# [4] = tested on: pea aphid (Acyrthosiphon pisun); test: Synergist activity against pea aphid, field trial; assay type: in vivo; settings: two days after treatment
# Protocol: Synergist Activity Against Pea Aphid (Acyrthosiphon pisun)
# Synergist activity of compound No. 599 was tested against pea aphid (Acyrthosiphon pisun) in field trials on small plots (10 m^2). 300 l/ha spray volume was applied using motoric sprayer (Maruyama). Efficacy was expressed by the average number of aphids/leaf before, and two days after the treatment, respectively. (Henderson and Tilton: J. Econ. Entomol., 48:157, 1955).
# [5] = tested on: cotton bollworm (Helicoverpa armigera); test: Synergistic activity on cotton bollworm following topical application; settings: in vivo
# Protocol: Investigation of Synergistic Activity on Cotton Bollworm (Helicoverpa armigera) Following Topical Application
# Treatment was performed similarity as described in Example 1. but L2 stadium grubs of cotton bollworms (Helicoverpa armigera) were treated as test animals. From the 24 hour dose--mortality data the LD50 (ng/grub) values were determined using probit analysis. None of the synergists acted at the applied 1000 ng/grub dose. Synergist ratio was calculated as the quotient of the LD50 values of carbofuran administered alone, and with the synergist. The experiments were performed in 2-4 replica.
# [6] = tested on: house fly (Musca domestica); test: Effect of the active ingredient:synergist ratio on the synergistic activity (flies)
# Protocol: Effect of the Active Ingredient:Synergist Ratio on the Synergistic Activity
# Treatment was performed as described in Example 1. using Hamilton MicroLab P microdispenser. In two parallel experiments 10 female -3 day old flies were treated on the ventral side of their thorax with 0.2 μl test solution. Beside 1000-400-200-80 ng/fly fixed doses of the synergist they were treated with constant 20 ng/fly CARBOFURAN®. Selection and counting of the flies were performed under the action of CO2. After treatment the flies were kept in plastic cups covered with tulle. After 24 hours mortality % was recorded. Depending on the results the experiments were performed in 2-4 replica.
# [7] = tested on: flies; test: Comparative investigations with known reference synergists on flies treated with carbofuran; assay type: in vivo; settings: flies treated with carbofuran and 1000 ng of the synergist
# Description: These SR50 ratios were compared to those of the new compounds prepared by us.
# [8] = tested on: house fly (Musca domestica); settings: in vivo, topical_or_ocular, 1440 min
# Protocol: Investigation of Synergistic Activity on House Fly (Musca domestica) Following Topical Application
# In two parallel experiments 10 female. 2-4 day old house flies were treated on the vental side of their thorax with 0.2 μl of the test solution, with the help of Hamilton MicroLab P microdispenser. Beside fixed synergist dose of 1000 ng/fly the animals were treated with carbofuran at a dose of 20 ng/fly. For solvent cellosolve was used. Selection and counting of the flies were performed under the action of CO2. After treatment the flies were kept in plastic cups covered with tulle. Mortality after 24 hours was expressed in %.
# [9] = tested on: cotton bollworm (Helicoverpa armigera); test: Synergist spectrum on cotton bollworm, topical; assay type: in vivo
# Protocol: (§3) Investigation of Synergist Spectrum on House Fly (Musca domestica) and Cotton Bollworm (Helicoverpa armigera) Following Topical Administration
# (§4) Synerzistic activities of materials No. 279 and 599 of the present invention for various active ingredients were determined on house fly (Musca domestica) and cotton bollworm (Helicoverpa armigera) using methods of treatments as described in biological Examples 1 and 2. For the active ingredients ISO common names are given (see: Pesticide Manual 1994).
# [10] = tested on: house fly (Musca domestica); test: Synergist spectrum on house fly, topical; assay type: in vivo
# Protocol: as §3, §4
# [11] = carbofuran 20 ng/fly + synergist 80 ng/fly
# [12] = carbofuran 20 ng/fly + synergist 200 ng/fly
# [13] = carbofuran 20 ng/fly + synergist 400 ng/fly
# [14] = house fly, in vivo, topical_or_ocular
smiles,measurement,setting,value
CC(C)(C)c1ccc(CCOc2ncnc3ccccc23)cc1 [FENAZAQUIN],LC50,"[1]; Acaricide/Synergist 1:0, 3 h",> 1000 µg/mL
same,LC50,"[1]; Acaricide/Synergist 1:0, 24 h",41.9 µg/mL
"CNC(=O)Oc1cccc2c1OC(C)(C)O2 [BENDIOCARB, reference compound]",LD50,[2],100000 ng/fly
same,LD50,[3],100000 ng/fly
"CNC(=O)Oc1ccccc1C(C)C [ISOPROCARB, reference compound]",LD50,[2],> 100000 ng/fly
same,LD50,[3],> 100000 ng/fly
"Cc1nc(N(C)C)nc(OC(=O)N(C)C)c1C [PIRIMICARB, reference compound]",LD50,[2],> 100000 ng/fly
same,E (%),[4]; dose 80 act. ingr./ha,86.3%
same,E (%),[4]; dose 250 act. ingr./ha,93.8%
same,LD50,[3],> 100000 ng/fly
CCOC(=O)CSc1nc(C(C)(C)C)nn1C(=O)N(C)C [TRIAZAMATE],E (%),[4]; dose 50 act. ingr./ha,96.8%
"CC#CCOCc1ccc(OC)c(OC)c1 [Compound 493, (2-Butynyloxy-methyl)-3,4-dimethoxy-benzene]",Synergist ratio,[5],> 5
same,24 hour mortality (%),[6]; [11],75%
same,24 hour mortality (%),[6]; [12],88%
same,24 hour mortality (%),[6]; [13],94%
same,24 hour mortality (%),[6]; [14],100%
same,Synergist ratio SR50,[7],32.84
same,mortality %,[8],100%
"CNC(=O)ON=C(C)SC [METHOMYL, reference compound]",LD50,[2],851 ng/fly
same,LD50,[3],475 ng/fly
CC#CCOC(C)c1ccc(OC)c(OC)c1 (stereo not shown) [Compound 599],Synergist ratio,[9]; with BENDIOCARB,> 20
same,Synergist ratio,[9]; with CARBOFURAN,> 20
same,Synergist ratio,[9]; with DIOXACARB,> 20
same,Synergist ratio,[9]; with ISOPROCARB,> 20
same,Synergist ratio,[9]; with PERMETHRIN,> 10
same,Synergist ratio,[9]; with PROPOXUR,> 20
same,Synergist ratio,[5],> 5
same,Synergist ratio,[10]; with AMINOCARB,> 20
same,Synergist ratio,[10]; with BENDIOCARB,> 40
same,Synergist ratio,[10]; with CARBOFURAN,> 20
same,Synergist ratio,[10]; with DIOXACARB,> 40
same,Synergist ratio,[10]; with ESBIOL,> 10
same,Synergist ratio,[10]; with FENOBUCARB,> 20
same,Synergist ratio,[10]; with IMIDACLOPRID,> 5
same,Synergist ratio,[10]; with ISOPROCARB,> 40
same,Synergist ratio,[10]; with METHOMYL,> 10
same,Synergist ratio,[10]; with PERMETHRIN,> 5
same,Synergist ratio,[10]; with PIRIMICARB,> 20
same,Synergist ratio,[10]; with PROPOXUR,> 40
same,Synergist ratio,[10]; with TETRAMETHRIN,> 5
same,Synergist ratio,[10]; with THIODICARB,> 10
same,24 hour mortality (%),[6]; [11],65%
same,24 hour mortality (%),[6]; [12],90%
same,24 hour mortality (%),[6]; [13],95%
same,24 hour mortality (%),[6]; [14],100%
same,mortality %,[8],100%
